Data: patent EP4707277A1, “NOVEL HETEROCYCLIC AMINE DERIVATIVES AND PHARMACEUTICAL COMPOSITION COMPRISING SAME” (Daewoong Pharmaceutical Co., Ltd., priority 2023, dated 2024)
Like-named read-outs stand apart in the source and are kept apart here.

Tests used:
ITK = target: T1, ITK (Homo sapiens, UniProt Q08881); experiment: Inhibitory activity against ITK, ADP-Glo Kinase system (Promega); type: biochemical
T1 construct: purchased Signalchem I13-11G-10
T1 sequence (Q08881 1-620): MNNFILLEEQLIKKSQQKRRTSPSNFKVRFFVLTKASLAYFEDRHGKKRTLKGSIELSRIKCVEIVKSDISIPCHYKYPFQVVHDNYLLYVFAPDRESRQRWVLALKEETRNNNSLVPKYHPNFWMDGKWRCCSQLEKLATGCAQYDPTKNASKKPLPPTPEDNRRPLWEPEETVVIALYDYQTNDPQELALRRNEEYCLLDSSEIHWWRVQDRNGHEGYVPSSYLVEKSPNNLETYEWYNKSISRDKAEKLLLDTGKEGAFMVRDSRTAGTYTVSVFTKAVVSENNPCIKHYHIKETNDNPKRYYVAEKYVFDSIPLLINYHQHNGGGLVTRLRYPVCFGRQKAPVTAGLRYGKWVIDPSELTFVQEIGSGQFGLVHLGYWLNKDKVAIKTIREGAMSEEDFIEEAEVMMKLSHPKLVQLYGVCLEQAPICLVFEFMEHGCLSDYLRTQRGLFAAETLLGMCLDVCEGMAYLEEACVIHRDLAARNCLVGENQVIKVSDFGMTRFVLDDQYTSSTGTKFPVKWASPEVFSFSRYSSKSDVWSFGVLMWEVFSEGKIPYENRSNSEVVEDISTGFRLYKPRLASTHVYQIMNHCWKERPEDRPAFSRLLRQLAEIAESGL
Method in brief: (§1)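 IC50 values were fitted from kinase reactions run for 1 h at 30°C with either 1 mM ATP or ATP at Km (10 µM for BTK, 25 µM for ITK). Reactions used 0.2 µg/µl poly(Glu4,Tyr1), recombinant human enzyme (BTK 10 ng, ITK 4 ng per reaction) in Tris pH 7.5 Mn/Mg buffer with 1% DMSO. ADP formed was read by ADP-Glo luminescence.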

BTK = target: T2, BTK (Homo sapiens, UniProt Q06187); experiment: Inhibitory activity against BTK, ADP-Glo Kinase system (Promega); type: biochemical
T2 construct: purchased Signalchem B10-10H
Method in brief: as §1

[1] = Km ATP (ITK: 25uM), read-out: ITK IC50(nM) Km ATP
[2] = Km ATP (BTK: 10 uM), read-out: BTK IC50(nM) Km ATP
[3] = 1mM ATP, read-out: ITK IC50(nM) 1mM ATP
[4] = 1mM ATP, read-out: BTK IC50(nM) 1mM ATP

T2 sequence (Q06187 whole entry): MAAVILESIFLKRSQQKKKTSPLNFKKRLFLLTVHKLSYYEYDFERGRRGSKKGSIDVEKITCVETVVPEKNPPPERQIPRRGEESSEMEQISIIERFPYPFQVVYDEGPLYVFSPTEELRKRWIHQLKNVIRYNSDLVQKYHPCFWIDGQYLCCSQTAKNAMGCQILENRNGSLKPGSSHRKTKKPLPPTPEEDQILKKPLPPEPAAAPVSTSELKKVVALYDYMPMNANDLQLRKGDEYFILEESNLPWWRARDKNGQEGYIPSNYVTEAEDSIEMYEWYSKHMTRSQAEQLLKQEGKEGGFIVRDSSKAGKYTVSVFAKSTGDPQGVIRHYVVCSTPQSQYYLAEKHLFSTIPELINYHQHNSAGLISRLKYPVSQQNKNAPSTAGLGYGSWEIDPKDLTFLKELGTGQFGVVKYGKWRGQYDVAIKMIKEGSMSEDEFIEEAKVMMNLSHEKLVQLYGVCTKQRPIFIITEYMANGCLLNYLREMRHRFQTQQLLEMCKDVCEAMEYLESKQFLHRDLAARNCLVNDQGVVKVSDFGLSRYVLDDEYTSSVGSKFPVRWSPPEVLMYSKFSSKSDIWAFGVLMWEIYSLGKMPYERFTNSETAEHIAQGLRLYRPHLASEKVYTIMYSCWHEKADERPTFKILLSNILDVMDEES

Row | SMILES | IC50 (ITK; [1]) | IC50 (BTK; [2]) | IC50 (ITK; [3]) | IC50 (BTK; [4])
1 | C=CC(=O)Nc1cccc(-c2nc(Nc3ncc(C)s3)cc3c2ccn3C)c1F [Example 51, N-(2-fluoro-3-(1-methyl-6-((5-methylthiazol-2-yl)amino)-1H-pyrrolo[3,2-c]pyridin-4-yl)phenyl)acrylamide] | ≤ 20 nM | ≤ 20 nM | – | –
2 | C=CC(=O)N1CC[C@H](Oc2nc(Nc3ncc(C)s3)cc3c2ccn3CCC)C1 [Example 126, (S)-1-(3-((6-((5-methylthiazol-2-yl)amino)-1-propyl-1H-pyrrolo[3,2-c]pyridin-4-yl)oxy)pyrrolidin-1-yl)prop-2-en-1-one] | – | – | ≤ 20 nM | ≤ 20 nM
3 | C=CC(=O)Nc1cccc(-c2nc(Nc3ncc(C)s3)cc3c2ccn3C(C)C)c1C [Example 58, N-(3-(1-isopropyl-6-((5-methylthiazol-2-yl)amino)-1H-pyrrolo[3,2-c]pyridin-4-yl)-2-methylphenyl)acrylamide] | – | – | ≤ 20 nM | ≤ 20 nM
4 | C=CC(=O)N1C[C@@H](F)[C@H](Oc2nc(Nc3ncc(C)s3)cc3c2ccn3C)C1 [Example 157, 1-((3R,4R)-3-fluoro-4-((1-methyl-6-((5-methylthiazol-2-yl)amino)-1H-pyrrolo[3,2-c]pyridin-4-yl)oxy)pyrrolidin-1-yl)prop-2-en-1-one] | – | – | ≤ 20 nM | ≤ 20 nM
5 | C=CC(=O)N1C[C@@H](F)[C@H](Oc2nc(Nc3ncc(C)s3)cc3c2ccn3CCC)C1 [Example 161, 1-((3R,4R)-3-fluoro-4-((6-((5-methylthiazol-2-yl)amino)-1-propyl-1H-pyrrolo[3,2-c]pyridin-4-yl)oxy)pyrrolidin-1-yl)prop-2-en-1-one] | – | – | ≤ 20 nM | ≤ 20 nM
6 | C=CC(=O)N1CC[C@H](Oc2nc(Nc3cc(C)ncn3)cc3c2ccn3CC(C)C)C1 [Example 104, (S)-1-(3-((1-isobutyl-6-((6-methylpyrimidin-4-yl)amino)-1H-pyrrolo[3,2-c]pyridin-4-yl)oxy)pyrrolidin-1-yl)prop-2-en-1-one] | – | – | 20 to 100 nM | 20 to 100 nM
7 | C=CC(=O)N1CC(F)(F)C[C@@H]1COc1nc(Nc2ncc(C)s2)cc2c1ccn2C(C)C [Example 93, (R)-1-(4,4-difluoro-2-(((1-isopropyl-6-((5-methylthiazol-2-yl)amino)-1H-pyrrolo[3,2-c]pyridin-4-yl)oxy)methyl)pyrrolidin-1-yl)prop-2-en-1-one] | – | – | ≤ 20 nM | ≤ 20 nM
8 | C=CC(=O)N1C[C@@H](Oc2nc(Nc3ncc(C)s3)cc3c2ccn3CC2CC2)C[C@H]1C [Example 98, 1-((2R,4S)-4-((1-(cyclopropylmethyl)-6-((5-methylthiazol-2-yl)amino)-1H-pyrrolo[3,2-c]pyridin-4-yl)oxy)-2-methylpyrrolidin-1-yl)prop-2-en-1-one] | – | – | ≤ 20 nM | ≤ 20 nM
9 | C=CC(=O)N1CC[C@H](Oc2nc(Nc3ncc(C)s3)cc3c2ccn3CC(C)(C)O)C1 [Example 140, (S)-1-(3-((1-(2-hydroxy-2-methylpropyl)-6-((5-methylthiazol-2-yl)amino)-1H-pyrrolo[3,2-c]pyridin-4-yl)oxy)pyrrolidin-1-yl)prop-2-en-1-one] | – | – | ≤ 20 nM | ≤ 20 nM
10 | C=CC(=O)N1C[C@@H](F)[C@H](Oc2nc(Nc3ncc(C)s3)cc3c2ccn3C[C@@H](C)CC)C1 [Example 175, 1-((3R,4R)-3-fluoro-4-((1-((S)-2-methylbutyl)-6-((5-methylthiazol-2-yl)amino)-1H-pyrrolo[3,2-c]pyridin-4-yl)oxy)pyrrolidin-1-yl)prop-2-en-1-one] | – | – | ≤ 20 nM | ≤ 20 nM
11 | C=CC(=O)N1C[C@H](F)[C@H](Oc2nc(Nc3cc[nH]n3)cc3c2ccn3CC(C)C)C1 [Example 195, 1-((3R,4S)-3-((6-((1H-pyrazol-3-yl)amino)-1-isobutyl-1H-pyrrolo[3,2-c]pyridin-4-yl)oxy)-4-fluoropyrrolidin-1-yl)prop-2-en-1-one] | – | – | 100 to 500 nM | 20 to 100 nM
12 | C=CC(=O)N1C[C@H](F)[C@H](Oc2nc(Nc3ncc(C)s3)cc3c2ccn3CC(C)C)C1 [Example 105, 1-((3S,4R)-3-fluoro-4-((1-isobutyl-6-((5-methylthiazol-2-yl)amino)-1H-pyrrolo[3,2-c]pyridin-4-yl)oxy)pyrrolidin-1-yl)prop-2-en-1-one] | – | – | ≤ 20 nM | ≤ 20 nM
13 | C=CC(=O)N1C[C@@H](F)[C@H](Oc2nc(Nc3ncc(C)s3)cc3c2ccn3C2CCCC2)C1 [Example 110, 1-((3R,4R)-3-((1-cyclopentyl-6-((5-methylthiazol-2-yl)amino)-1H-pyrrolo[3,2-c]pyridin-4-yl)oxy)-4-fluoropyrrolidin-1-yl)prop-2-en-1-one] | – | – | ≤ 20 nM | ≤ 20 nM
14 | C=CC(=O)N1CC[C@@H]1COc1nc(Nc2ncc(C)s2)cc2c1ccn2CC(F)F [Example 209, (R)-1-(2-(((1-(2,2-difluoroethyl)-6-((5-methylthiazol-2-yl)amino)-1H-pyrrolo[3,2-c]pyridin-4-yl)oxy)methyl)azetidin-1-yl)prop-2-en-1-one] | – | – | ≤ 20 nM | ≤ 20 nM
15 | C=CC(=O)N1C[C@H](F)[C@H](Oc2nc(Nc3ncc(C)s3)cc3c2ccn3CCC)C1 [Example 159, 1-((3S,4R)-3-fluoro-4-((6-((5-methylthiazol-2-yl)amino)-1-propyl-1H-pyrrolo[3,2-c]pyridin-4-yl)oxy)pyrrolidin-1-yl)prop-2-en-1-one] | – | – | ≤ 20 nM | ≤ 20 nM
16 | C=CC(=O)N1CC[C@H](Oc2nc(Nc3ncc(C)s3)cc3c2ccn3CC2CCOCC2)C1 [Example 133, (S)-1-(3-((6-((5-methylthiazol-2-yl)amino)-1-((tetrahydro-2H-pyran-4-yl)methyl)-1H-pyrrolo[3,2-c]pyridin-4-yl)oxy)pyrrolidin-1-yl)prop-2-en-1-one] | – | – | ≤ 20 nM | ≤ 20 nM
17 | C=CC(=O)N1C[C@@H](F)[C@H](Oc2nc(Nc3ncc(C)s3)cc3c2ccn3CC2CC2)C1 [Example 108, 1-((3R,4R)-3-((1-(cyclopropylmethyl)-6-((5-methylthiazol-2-yl)amino)-1H-pyrrolo[3,2-c]pyridin-4-yl)oxy)-4-fluoropyrrolidin-1-yl)prop-2-en-1-one] | – | – | ≤ 20 nM | ≤ 20 nM
18 | C=CC(=O)Nc1cc(-c2nc(Nc3ncc(C)s3)cc3c2ccn3CC2CC2)c(F)cc1F [Example 66, N-(5-(1-(cyclopropylmethyl)-6-((5-methylthiazol-2-yl)amino)-1H-pyrrolo[3,2-c]pyridin-4-yl)-2,4-difluorophenyl)acrylamide] | ≤ 20 nM | ≤ 20 nM | 20 to 100 nM | ≤ 20 nM
19 | C=CC(=O)N1C2C=C(c3nc(Nc4ncc(C)s4)cc4c3ccn4CC3(C(F)(F)F)CC3)CC1CC2 (centres unmarked) [Example 30, 1-(3-(6-((5-methylthiazol-2-yl)amino)-1-((1-(trifluoromethyl)cyclopropyl)methyl)-1H-pyrrolo[3,2-c]pyridin-4-yl)-8-azabicyclo[3.2.1]oct-2-en-8-yl)prop-2-en-1-one] | – | – | ≤ 20 nM | ≤ 20 nM
20 | C=CC(=O)Nc1cc(-c2nc(Nc3ncc(C)s3)cc3c2ccn3CC2CC2)ccc1C [Example 65, N-(5-(1-(cyclopropylmethyl)-6-((5-methylthiazol-2-yl)amino)-1H-pyrrolo[3,2-c]pyridin-4-yl)-2-methylphenyl)acrylamide] | 20 to 100 nM | ≤ 20 nM | – | –
21 | C=CC(=O)N1CC=C(c2nc(Nc3ncc(C)s3)cc3c2ccn3Cc2ccccc2)CC1 [Example 15, 1-(4-(1-benzyl-6-((5-methylthiazol-2-yl)amino)-1H-pyrrolo[3,2-c]pyridin-4-yl)-3,6-dihydropyridin-1(2H)-yl)prop-2-en-1-one] | ≤ 20 nM | ≤ 20 nM | – | –
22 | C=CC(=O)Nc1cccc(-c2nc(Nc3ncc(C)s3)cc3c2ccn3C)c1 [Example 50, N-(3-(1-methyl-6-((5-methylthiazol-2-yl)amino)-1H-pyrrolo[3,2-c]pyridin-4-yl)phenyl)acrylamide] | 20 to 100 nM | ≤ 20 nM | – | –
23 | C=CC(=O)N1C[C@H](F)[C@H](Oc2nc(Nc3ncc(C(=O)NC)s3)cc3c2ccn3CC(C)C)C1 [Example 182, 2-((4-(((3R,4S)-1-acryloyl-4-fluoropyrrolidin-3-yl)oxy)-1-isobutyl-1H-pyrrolo[3,2-c]pyridin-6-yl)amino)-N-methylthiazole-5-carboxamide] | – | – | ≤ 20 nM | ≤ 20 nM
24 | C=CC(=O)N1C[C@H](F)[C@H](Oc2nc(Nc3ncc(C)s3)cc3c2ccn3CCOC)C1 [Example 147, 1-((3S,4R)-3-fluoro-4-((1-(2-methoxyethyl)-6-((5-methylthiazol-2-yl)amino)-1H-pyrrolo[3,2-c]pyridin-4-yl)oxy)pyrrolidin-1-yl)prop-2-en-1-one] | – | – | ≤ 20 nM | ≤ 20 nM
